According to US6525001B1, “Substituted pyrimidine and pyridine herbicides” (Mid-American Commercialization Corporation, priority 1997, dated 2003):

How the values were obtained:
Assay type in all cases: in vivo
[1] = test system: arrowleaf sida (Sida rhombifolia); assay: Test E pre-/postemergence/post directed; parameters: key: 0 is no effect; 100 is complete control; details: PREEMERGENCE
Summary of the method: (§1)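 Three application modes in greenhouse pots: preemergence soil spray, postemergence foliar spray at two to four leaves, and post-directed spray to soil and plant base. Ratings of 0–100 injury, assigned visually against untreated controls 13 to 21 days later.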

[2] = test system: johnson grass (Sorghum halepense); assay: Test E pre-/postemergence/post directed; parameters: key: 0 is no effect; 100 is complete control; details: Rate 250 g/ha
Summary of the method: as §1

[3] = test system: leafy spurge (Euphorbia esula); assay: Test E pre-/postemergence/post directed; parameters: key: 0 is no effect; 100 is complete control; details: PREEMERGENCE
Summary of the method: as §1

[4] = test system: green foxtail (Setaria viridis); assay: Test E pre-/postemergence/post directed; parameters: key: 0 is no effect; 100 is complete control; details: PREEMERGENCE
Summary of the method: as §1

[5] = test system: alexandergrass (Brachiaria plantaginea); assay: Test E pre-/postemergence/post directed; parameters: key: 0 is no effect; 100 is complete control; details: PREEMERGENCE
Summary of the method: as §1

[6] = test system: annual bluegrass (Poa annua); assay: Test E pre-/postemergence/post directed; parameters: key: 0 is no effect; 100 is complete control; details: PREEMERGENCE
Summary of the method: as §1

[7] = test system: B. signalgrass; assay: Test E pre-/postemergence/post directed; parameters: key: 0 is no effect; 100 is complete control; details: PREEMERGENCE
Summary of the method: as §1

[8] = test system: sandbur (Cenchrus echinatus); assay: Test E pre-/postemergence/post directed; parameters: key: 0 is no effect; 100 is complete control; details: PREEMERGENCE, Rate 250 g/ha
Summary of the method: as §1

[9] = test system: Spanishneedles (Bidens bipinnata); assay: Test E pre-/postemergence/post directed; parameters: key: 0 is no effect; 100 is complete control; details: PREEMERGENCE
Summary of the method: as §1

[10] = test system: common chickweed (Stellaria media); assay: Test E pre-/postemergence/post directed; parameters: key: 0 is no effect; 100 is complete control; details: PREEMERGENCE
Summary of the method: as §1

[11] = test system: quackgrass (Agropyron repens); assay: Test E pre-/postemergence/post directed; parameters: key: 0 is no effect; 100 is complete control; details: PREEMERGENCE
Summary of the method: as §1

[12] = test system: littleseed canarygrass (Phalaris minor); assay: Test D; details: PREEMERGENCE
[13] = test system: green foxtail (Setaria viridis); assay: Test D; parameters: key: 0 is no effect; 100 is complete control; details: PREEMERGENCE
[14] = test system: jointed goatgrass (Aegilops cylindrica); assay: Test D; parameters: key: 0 is no effect; details: PREEMERGENCE
[15] = test system: wild mustard (Sinapis arvensis); assay: Test D; parameters: key: 0 is no effect; 100 is complete control; details: PREEMERGENCE

SMILES: Cc1cnc(-c2ccc(C(F)(F)F)cc2)nc1Cc1cccc(OC(F)(F)F)c1 [Compound 15]
- Plant response rating, Arrowleaf sida ([1]; Rate 32 g/ha): 65
- Plant response rating, Arrowleaf sida ([1]; Rate 64 g/ha): 50
- Plant response rating, Arrowleaf sida ([1]; Rate 125 g/ha): 100
- Plant response rating, Arrowleaf sida ([1]; Rate 250 g/ha): 100
- Plant response rating, Johnsongrass ([2]; POSTEMERGENCE): 100
- Plant response rating, Johnsongrass ([2]; PREEMERGENCE): 100
- Plant response rating, Leafy spurge ([3]; Rate 32 g/ha): 35
- Plant response rating, Leafy spurge ([3]; Rate 64 g/ha): 65
- Plant response rating, Leafy spurge ([3]; Rate 250 g/ha): 98
- Plant response rating, Green foxtail ([4]; Rate 32 g/ha): 100
- Plant response rating, Green foxtail ([4]; Rate 64 g/ha): 100
- Plant response rating, Green foxtail ([4]; Rate 125 g/ha): 100
- Plant response rating, Green foxtail ([4]; Rate 250 g/ha): 100
- Plant response rating, Alexandergrass ([5]; Rate 125 g/ha): 100
- Plant response rating, Alexandergrass ([5]; Rate 250 g/ha): 100
- Plant response rating, A. bluegrass ([6]; Rate 32 g/ha): 100
- Plant response rating, A. bluegrass ([6]; Rate 64 g/ha): 100
- Plant response rating, A. bluegrass ([6]; Rate 125 g/ha): 100
- Plant response rating, A. bluegrass ([6]; Rate 250 g/ha): 100
- Plant response rating, B. signalgrass ([7]; Rate 32 g/ha): 35
- Plant response rating, B. signalgrass ([7]; Rate 64 g/ha): 60
- Plant response rating, B. signalgrass ([7]; Rate 125 g/ha): 95
- Plant response rating, B. signalgrass ([7]; Rate 250 g/ha): 98
- Plant response rating, Sandbur [8]: 100
- Plant response rating, Spanishneedles ([9]; Rate 250 g/ha): 100
- Plant response rating, Com. chickweed ([10]; Rate 32 g/ha): 65
- Plant response rating, Com. chickweed ([10]; Rate 64 g/ha): 85
- Plant response rating, Com. chickweed ([10]; Rate 125 g/ha): 98
- Plant response rating, Com. chickweed ([10]; Rate 250 g/ha): 100
- Plant response rating, Quackgrass ([11]; Rate 32 g/ha): 65
- Plant response rating, Quackgrass ([11]; Rate 64 g/ha): 65
- Plant response rating, Quackgrass ([11]; Rate 125 g/ha): 95
- Plant response rating, Quackgrass ([11]; Rate 250 g/ha): 95

SMILES: CCc1cnc(-c2ccc(C(F)(F)F)cc2)nc1Cc1cccc(C(F)(F)F)c1 [Compound 22]
- Plant response rating, LS canarygrass ([12]; Rate 62 g/ha): 20
- Plant response rating, LS canarygrass ([12]; Rate 125 g/ha): 60
- Plant response rating, LS canarygrass ([12]; Rate 250 g/ha): 50
- Plant response rating, Green foxtail ([13]; Rate 62 g/ha): 10
- Plant response rating, Green foxtail ([13]; Rate 125 g/ha): 100
- Plant response rating, Green foxtail ([13]; Rate 250 g/ha): 100
- Plant response rating, Jointed goatgra ([14]; Rate 62 g/ha): 0
- Plant response rating, Jointed goatgra ([14]; Rate 125 g/ha): 20
- Plant response rating, Jointed goatgra ([14]; Rate 250 g/ha): 10
- Plant response rating, Wild mustard ([15]; Rate 62 g/ha): 30
- Plant response rating, Wild mustard ([15]; Rate 125 g/ha): 60
- Plant response rating, Wild mustard ([15]; Rate 250 g/ha): 30

SMILES: COc1cnc(-c2ccc(C(F)(F)F)cc2)nc1Cc1cccc(C(F)(F)F)c1 [Compound 23]
- Plant response rating, Spanishneedles ([9]; Rate 125 g/ha): 100
- Plant response rating, Spanishneedles ([9]; Rate 250 g/ha): 100

SMILES: Cc1cnc(-n2ccc(C(F)(F)F)n2)nc1Cc1cccc(OC(F)(F)F)c1 [Compound 42]
- Plant response rating, Spanishneedles ([9]; Rate 125 g/ha): 100

SMILES: CCc1cnc(-n2ccc(C(F)(F)F)n2)nc1Cc1cccc(C(F)(F)F)c1 [Compound 46]
- Plant response rating, LS canarygrass ([12]; Rate 31 g/ha): 70
- Plant response rating, LS canarygrass ([12]; Rate 62 g/ha): 90
- Plant response rating, Green foxtail ([13]; Rate 31 g/ha): 80
- Plant response rating, Green foxtail ([13]; Rate 62 g/ha): 100
- Plant response rating, Jointed goatgra ([14]; Rate 31 g/ha): 50
- Plant response rating, Jointed goatgra ([14]; Rate 62 g/ha): 60
- Plant response rating, Wild mustard ([15]; Rate 31 g/ha): 90
- Plant response rating, Wild mustard ([15]; Rate 62 g/ha): 100
